Consider eight molecules from paper PMC3314985 (Neuromuscular Disorders, 2012).

Where two headings read alike, the source gives them in different places. Bounds are passed on as bounds.

For one series, the system named is human serum albumin. The following applies: cited from earlier work.
Series [1] deals with skeletal muscle sodium channels (native Nav1.4). The following applies: use-dependent block at 10 Hz frequency; cited from earlier work.
Series [2] has the same test system. The experiment in a line: Tonic and use-dependent block of sodium currents. Particulars: for eudismic ratio [IC50 distomer/IC50 eutomer]: 10 Hz use-dependent block. The series is classed as cell-based, Rana Esculenta.
The next series has as its system hNav1.7. The following applies: heterologously expressed; cited from earlier work.
For a further series, the system named is hNav1.4. Particulars: heterologously expressed; cited from earlier work.
The subject of the next series is pain threshold. Particulars: rat, oxaliplatin-induced neuropathic pain; cited from earlier work.

Consider `Cc1cc(C)c(C)c(NC(=O)C2CCN(Cc3ccccc3)C2)c1C` (stereo not drawn) [To15, 1-benzyl-N-(2,3,5,6-tetramethylphenyl)pyrrolidine-3-carboxamide], for which the “binding activity to human serum albumin” value in the series with human serum albumin is “high binding activity”.
Consider `Cc1cccc(C)c1NC(=O)C1CCCN1` (stereo not drawn) [To5, N-(2,6-dimethylphenyl)pyrrolidine-2-carboxamide], for which the “eudismic ratio [IC50 distomer/IC50 eutomer]” value (from here on “eudismic ratio”) in series [1] is recorded as greater than 3.
As for `Cc1cccc(C)c1NC(=O)C1CCCN1Cc1ccccc1` (racemic) [To11, 1-benzyl-N-(2,6-dimethylphenyl)pyrrolidine-2-carboxamide], in series [2], the “eudismic ratio” value is “greater than 3”.
In the case of `O=C(Nc1ccc(Cl)cc1)C1CCN(Cc2ccccc2)C1` (stereo not drawn) [To14, 1-benzyl-N-(4-chlorophenyl)pyrrolidine-3-carboxamide], the “fold less potent than To10 during use-dependent blockade” value in series [2] is 4–5 fold.
Take `Cc1cccc(C)c1NC(=O)C1CCCCN1Cc1ccccc1` (stereo not drawn) [To35, 1-benzyl-N-(2,6-dimethylphenyl)piperidine-2-carboxamide]: the “fold less potent than To31 in tonic block” value in series [2] (tonic block) was determined as 4 fold. Moreover, the “fold less potent than To31 in use-dependent block” value in series [2] (use-dependent block) was 8 fold.
Consider `Cc1cccc(C)c1NC(=O)C1CCN(Cc2ccccc2)C1` (racemic) [To10, 1-benzyl-N-(2,6-dimethylphenyl)pyrrolidine-3-carboxamide], for which the “use-dependent block of hNav1.7” value in the series with hNav1.7 is recorded as “potent use-dependent blocker”. The “use-dependent block of hNav1.4” value in the series on hNav1.4 is recorded as “potent use-dependent blocker”. Further, in series [2], the “eudismic ratio” value was 1.3. In the series with pain threshold, the “reverting the reduction of the pain threshold” value was “more potent than tocainide”.
Take `Cc1cccc(C)c1NC(=O)C1CN(Cc2ccccc2)CCN1` (stereo not drawn) [To32, 4-benzyl-N-(2,6-dimethylphenyl)piperazine-2-carboxamide]: the “ratio IC50TB/IC50 UDB” value in series [2] (tonic block vs use-dependent block) was “around 12”.
As for `O=C(Nc1ccccc1)C1CCN(Cc2ccccc2)C1` (stereo not drawn) [To13, 1-benzyl-N-phenylpyrrolidine-3-carboxamide], in series [2], the “fold less potent than To10 during use-dependent blockade” value is reported as 4–5 fold.
